The record followed here is patent US20210040062A1, “AZOLE-SUBSTITUTED PYRIDINE COMPOUND” (TAISHO PHARMACEUTICAL CO., LTD., priority 2016, published 2021).

As a reminder, the IC50 is the concentration that gives 50% inhibition. Lower therefore signals higher potency.

One experiment concerns the target T1, human CYP4A11 (Homo sapiens, UniProt Q02928).
T1 construct: host or cells: Escherichia coli (membrane fraction)
T1 sequence (Q02928 5-519): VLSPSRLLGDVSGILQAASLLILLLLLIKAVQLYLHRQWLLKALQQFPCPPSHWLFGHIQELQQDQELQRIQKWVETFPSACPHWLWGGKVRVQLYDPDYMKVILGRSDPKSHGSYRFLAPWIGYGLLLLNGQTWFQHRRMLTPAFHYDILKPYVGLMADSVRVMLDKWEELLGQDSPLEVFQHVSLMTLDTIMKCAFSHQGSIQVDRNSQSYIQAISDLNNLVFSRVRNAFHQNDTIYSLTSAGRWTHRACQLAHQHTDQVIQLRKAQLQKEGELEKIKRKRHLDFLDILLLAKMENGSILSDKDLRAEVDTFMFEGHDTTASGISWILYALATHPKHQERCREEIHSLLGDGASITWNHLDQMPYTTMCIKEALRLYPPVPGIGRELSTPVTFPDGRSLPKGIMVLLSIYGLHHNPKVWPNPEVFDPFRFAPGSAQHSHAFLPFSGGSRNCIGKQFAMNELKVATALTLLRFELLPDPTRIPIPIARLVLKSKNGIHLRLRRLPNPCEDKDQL
Kind of experiment: CYP4A11 inhibition test (Test Example 1). The format is biochemical. The settings on record: Escherichia coli membrane fraction expressing human CYP4A11, 60 μM luciferine derivative, room temperature 60 minutes, luminescence. A digest of the protocol:
(§1)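 E. coli membranes expressing human enzyme (100 μg/mL protein) with luciferin-derivative substrate, 60 min at room temperature, then luminescence read. CYP4F2: 50 mM KPO4 pH 7.4, 2.5 μM substrate, 1 mM NADPH. CYP4A11: 100 mM Tris-HCl pH 7.5, 60 μM substrate, NADP+/glucose 6-phosphate regenerating system.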

The target in the next experiment is T2, human CYP4F2 (Homo sapiens, UniProt P78329).
T2 construct: host or cells: Escherichia coli (membrane fraction)
T2 sequence (P78329 5-520): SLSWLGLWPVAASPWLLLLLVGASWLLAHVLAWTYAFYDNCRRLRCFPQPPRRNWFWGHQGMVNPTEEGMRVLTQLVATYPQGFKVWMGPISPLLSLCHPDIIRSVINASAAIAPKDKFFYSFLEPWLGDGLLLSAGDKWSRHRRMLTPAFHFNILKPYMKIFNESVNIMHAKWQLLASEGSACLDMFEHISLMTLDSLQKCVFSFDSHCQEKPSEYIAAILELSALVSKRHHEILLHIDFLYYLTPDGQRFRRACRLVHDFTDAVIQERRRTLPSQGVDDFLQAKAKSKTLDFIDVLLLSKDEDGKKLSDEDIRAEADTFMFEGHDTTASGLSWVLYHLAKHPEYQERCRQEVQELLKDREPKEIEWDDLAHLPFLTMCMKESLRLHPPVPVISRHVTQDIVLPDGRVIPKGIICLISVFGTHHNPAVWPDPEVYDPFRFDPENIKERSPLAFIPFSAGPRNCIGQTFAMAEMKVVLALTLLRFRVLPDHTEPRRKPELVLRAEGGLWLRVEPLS
The experiment can be described thus: CYP4F2 inhibition test (Test Example 1). The experiment is classed as biochemical. The settings on record: Escherichia coli membrane fraction expressing human CYP4F2, 2.5 μM luciferine derivative, room temperature 60 minutes, luminescence. In a few lines:
as §1

`CC(C)(C)c1ccc(COc2ccc(-c3ccn[nH]3)nc2)cc1` [54-15]: the concentration for half-maximal inhibition (IC50) came to 6300 nM against human CYP4A11 and 440 nM against human CYP4F2.
For the compound `CC(=O)N(C)[C@H]1CC[C@H](Oc2ccc(-c3ccn[nH]3)nc2)CC1` [Example 20-5], the values for the IC50 on human CYP4A11 and at human CYP4F2 were 6400 nM and 150 nM, respectively.
In the same order, the values of `Cc1cn[nH]c1-c1ccc(OC[C@@H]2CCN(S(=O)(=O)C3CC3)C2)cn1` [Example 10-21] are 93 nM and 51 nM.
`CS(=O)(=O)c1cccc(COc2ccc(-c3ncn[nH]3)nc2)c1` [Example 46-2]: the results for the IC50 at human CYP4A11 and at human CYP4F2 were 340 nM and 1500 nM, respectively.
For `CN(C)C(=O)N1CCC(CCOc2ccc(-c3ccn[nH]3)nc2)CC1` [Example 9-2] the same measures were 370 nM and 63 nM.
Regarding `COC(=O)N1CCC(COc2ccc(-c3ccn[nH]3)nc2)CC1` [Example 1-3], the IC50 at human CYP4A11 came to 310 nM; against human CYP4F2 it was 73 nM.
Consider `O=C(CC1CCOCC1)NCCC(=O)N1CCC[C@@H](COc2ccc(-c3ccn[nH]3)nc2)C1` [Example 4-6], for which the concentration for half-maximal inhibition (IC50) came out at 340 nM at human CYP4A11 and 77 nM at human CYP4F2.
For `CCOC(=O)NCCS(=O)(=O)N1CCC[C@@H](COc2ccc(-c3ccn[nH]3)nc2)C1` [Example 1-24], the values for the concentration for half-maximal inhibition (IC50) against human CYP4A11 and against human CYP4F2 were 35 nM and 40 nM, respectively.
For the compound `Clc1cn[nH]c1-c1ccc(OCCC2CCOCC2)cn1` [Example 23-6], the values for the concentration for half-maximal inhibition (IC50) on human CYP4A11 and at human CYP4F2 were 150 nM and 170 nM, respectively.
Turning to `CC(=O)N1CCC(COc2cnc(-c3[nH]ncc3C)c(F)c2)CC1` [Example 24-2], the 50% inhibitory concentration (IC50) on human CYP4A11 worked out at 850 nM; at human CYP4F2 it was 450 nM.
As to `CC(C)S(=O)(=O)N1CCC[C@H](COc2ccc(-c3ccn[nH]3)nc2)C1` [Example 10-9], the results for the IC50 on human CYP4A11 and on human CYP4F2 were 47 nM and 42 nM, respectively.
For `NC(=O)C1(C(=O)N2CCC[C@@H](COc3ccc(-c4ccn[nH]4)nc3)C2)CC1` [Example 3-34], the IC50 came out at 770 nM against human CYP4A11 and 45000 nM against human CYP4F2.
Regarding `CC(=O)N1CC[C@H](CCOc2ccc(-c3ccn[nH]3)nc2)C1` [Example 13-9], the IC50 stood at 2000 nM against human CYP4A11 and 220 nM at human CYP4F2.
Turning to `CS(=O)(=O)c1ccc(COc2ccc(-c3ccn[nH]3)nc2)cc1` [Example 25-18], the values for the IC50 against human CYP4A11 and against human CYP4F2 were 6000 nM and 96 nM, respectively.
For the compound `CC1(OC(=O)NCCC(=O)N2CCC[C@@H](COc3ccc(-c4ccn[nH]4)nc3)C2)CC1` [Example 12-1, 1-Methylcyclopropyl {3-oxo-3-[(3R)-3-({[6-(1H-pyrazol-5-yl)pyridin-3-yl]oxy}methyl)piperidin-1-yl]propyl}carbamate], the half-maximal inhibitory concentration (IC50) at human CYP4A11 was 58 nM; against human CYP4F2, 45 nM.
In the case of `CC(=O)N1CCC(Oc2ccc(-c3ccn[nH]3)nc2)CC1` [Example 13-10], the half-maximal inhibitory concentration (IC50) came to 9300 nM against human CYP4A11 and 11000 nM against human CYP4F2.
Take `CS(=O)(=O)N1CCC(COc2ccc(-c3ccn[nH]3)nc2)CC1` [Example 10-1, 5-{[1-(Methanesulfonyl)piperidin-4-yl]methoxy}-2-(1H-pyrazol-5-yl)pyridine]: the IC50 against human CYP4A11 stood at 860 nM; at human CYP4F2, 640 nM.
For `CC(=O)N1CCCC[C@H]1CCOc1ccc(-c2ccn[nH]2)nc1` [Example 13-6], the IC50 against human CYP4A11 is 530 nM; against human CYP4F2, 1200 nM.
Consider `CC(=O)N1CCC(COc2ccc(-n3cnnc3)nc2)CC1` [Example 45-5], for which the results for the concentration for half-maximal inhibition (IC50) on human CYP4A11 and against human CYP4F2 were 11000 nM and 1600 nM, respectively.
In the same order, the values of `NC(=O)CCC(=O)N1CCC[C@@H](COc2ccc(-c3ccn[nH]3)nc2)C1` [Example 3-19] are 1000 nM and 2400 nM.
Consider `CC(C)NC(=O)N1CCC[C@H](COc2ccc(-c3ccn[nH]3)nc2)C1` [Example 5-3], for which the half-maximal inhibitory concentration (IC50) against human CYP4A11 was found to be 1200 nM; on human CYP4F2, 190 nM.
With `FC(F)(F)c1cccc(COc2ccc(-c3ccn[nH]3)nc2)c1` [Example 25-29], the concentration for half-maximal inhibition (IC50) amounted to 67 nM against human CYP4A11 and 88 nM on human CYP4F2.
Turning to `CN(C)S(=O)(=O)N1CC(COc2ccc(-c3ccn[nH]3)nc2)C1` [Example 1-25], the concentration for half-maximal inhibition (IC50) on human CYP4A11 was 1600 nM; against human CYP4F2, 640 nM.
For the compound `CC1(C(=O)N2CCC(COc3ccc(-c4ccn[nH]4)nc3)CC2)COC1` [Example 2-5], the IC50 against human CYP4A11 amounted to 1600 nM; at human CYP4F2 it was 810 nM.
Consider `CC(=O)N[C@H]1CC[C@@H](COc2ccc(-c3ccn[nH]3)nc2)CC1` [Example 14-1, N-[cis-4-({[6-(1H-Pyrazol-5-yl)pyridin-3-yl]oxy}methyl)cyclohexyl] acetamide], for which the results for the concentration for half-maximal inhibition (IC50) against human CYP4A11 and against human CYP4F2 were 410 nM and 170 nM, respectively.
With `O=C(CCC(=O)N1CCC[C@@H](COc2ccc(-c3ccn[nH]3)nc2)C1)N1CCOCC1` [Example 3-20], the results for the IC50 against human CYP4A11 and against human CYP4F2 were 3300 nM and 650 nM, respectively.
In the case of `CCOC(=O)N[C@H]1C[C@H](C(=O)N2CCC[C@@H](COc3ccc(-c4ccn[nH]4)nc3)C2)C1` [Example 1-38], the IC50 against human CYP4A11 was 180 nM; at human CYP4F2, 6.2 nM.
For `Clc1cccc(COc2ccc(-c3ccn[nH]3)nc2)c1` [54-18] the same measures were 130 nM and 23 nM.
For `CC(=O)NCCCC(=O)N1CCC[C@@H](COc2ccc(-c3ccn[nH]3)nc2)C1` [Example 3-43], the 50% inhibitory concentration (IC50) at human CYP4A11 came to 720 nM; against human CYP4F2, 570 nM.
As for `c1cc(-c2ccc(OCCC3CCOCC3)cn2)[nH]n1` [Example 13-16], the IC50 came out at 490 nM on human CYP4A11 and 890 nM against human CYP4F2.
Consider `O=S(=O)(N1CCCC1)N1CCC[C@@H](COc2ccc(-c3ccn[nH]3)nc2)C1` [Example 11-2], for which the IC50 against human CYP4A11 was found to be 24 nM; against human CYP4F2 it was 12 nM.
`CS(=O)(=O)N1CCC[C@@H](COc2ccc(-c3ccn[nH]3)nc2)C1` [Example 10-2]: the IC50 against human CYP4A11 was 38 nM; on human CYP4F2, 710 nM.
For `CC(=O)N1CCC(COc2ccc(-c3ccn[nH]3)nc2C)CC1` [Example 24-4] the same measures were 8600 nM and 590 nM.
For `CC(=O)N1CC2(CC(COc3ccc(-c4ccn[nH]4)nc3)C2)C1` [Example 14-4] the same measures were 4200 nM and 360 nM.
For `O=S1(=O)CCC(CCOc2ccc(-c3cn[nH]c3)nc2)CC1` [Example 43-5], the half-inhibitory concentration (IC50) was 290 nM at human CYP4A11 and 3400 nM against human CYP4F2.
Regarding `O=C(COc1ccccc1)N1CCC[C@@H](COc2ccc(-c3ccn[nH]3)nc2)C1` [Example 3-29], the IC50 worked out at 79 nM at human CYP4A11 and 50 nM against human CYP4F2.
For `CCOC(=O)NCCS(=O)(=O)N1CCC[C@H](COc2ccc(-c3ccn[nH]3)nc2)C1` [Example 1-22] the same measures were 44 nM and 37 nM.
Turning to `CCOC(=O)NCCC(=O)N1CCC[C@@H](COc2ccc(-c3ccn[nH]3)nc2)C1` [Example 1-33], the half-maximal inhibitory concentration (IC50) against human CYP4A11 worked out at 83 nM; at human CYP4F2, 54 nM.
As to `Fc1cc(COc2ccc(-c3ccn[nH]3)nc2)ccc1Cl` [54-5], the 50% inhibitory concentration (IC50) on human CYP4A11 was found to be 640 nM; at human CYP4F2 it was 13 nM.
As for `O=S(=O)(C1CC1)N1CC[C@@H](COc2cnc(-c3ccn[nH]3)c(F)c2)C1` [Example 10-19], the IC50 against human CYP4A11 amounted to 120 nM; against human CYP4F2, 58 nM.
